Where a name gives a salt, the structure may show the parent alone.
How the values were obtained:
Type in all cases: cell-based, human
[1] = test system: imDAPs; experiment: qRT-PCR analysis of imDAP-specific markers in expanded imDAPs; conditions: Example 3; 3 μM CHIR99021 (vs 0, 1.25 μM) during expansion; 5 days; FIG. 1C
Description: • 1. Individualize and collect cells by either Accutase or TrypLE treatment. • 2. Wash cells with 1 ml PBS and pellet cells at 250×g for 15 sec. • 3. Remove supernatant, add ˜200 μl of 4% PFA, mix and fix for 10 min at RT. • 4. Pellet cells at 350×g for 5 min. • 5. Wash cells by 1 ml of FACS buffer and pellet cells at 350×g for 5 min. • 6. Remove supernatant, add 200 μl/tube of FACS buffer/0.1% TritonX, mix for 10 min at RT. • 7. Wash cells by 1 ml of FACS buffer and pellet cells at 350×g for 5 min. • 8. Remove supernatant, add 200 μl/tube of primary antibody diluted in FACS buffer, mix gently, and incubate for 30 min at RT. • 9. Wash cells by 1 ml of FACS buffer and pellet cells at 350×g for 5 min. • 10. Remove supernatant, and add 200 μl of secondary antibody diluted in FACS buffer, mix gently, and incubate for 30 min at RT. • 11. Wash cells by 1 ml of FACS buffer and pellet cells at 300×g for 5 min. • 12. Remove supernatant, add 200 μl of FACS buffer, and run samples on the flow cytometry. (2) qRT-PCR • 1. For qRT-PCR analysis of mRNA gene expression, RNA should be harvested from at least 2×10^6 cells. • 2. […] Analyze the samples by running a quantitative PCR on the LightCycler 480 instrument using a 40× cycle two-step protocol with a 60° C., 60 sec annealing/elongation step and a 95° C., 30 sec denaturation step. […]

[2] = test system: imDAPs; experiment: Flow cytometry (FACS) analysis of FOXA2 expression in expanded imDAPs; conditions: Example 6
Description: • 1. Individualize and collect cells by either Accutase or TrypLE treatment. • 2. Wash cells with 1 ml PBS and pellet cells at 250×g for 15 sec. • 3. Remove supernatant, add ˜200 μl of 4% PFA, mix and fix for 10 min at RT. • 4. Pellet cells at 350×g for 5 min. • 5. Wash cells by 1 ml of FACS buffer and pellet cells at 350×g for 5 min. • 6. Remove supernatant, add 200 μl/tube of FACS buffer/0.1% TritonX, mix for 10 min at RT. • 7. Wash cells by 1 ml of FACS buffer and pellet cells at 350×g for 5 min. • 8. Remove supernatant, add 200 μl/tube of primary antibody diluted in FACS buffer, mix gently, and incubate for 30 min at RT. • 9. Wash cells by 1 ml of FACS buffer and pellet cells at 350×g for 5 min. • 10. Remove supernatant, and add 200 μl of secondary antibody diluted in FACS buffer, mix gently, and incubate for 30 min at RT. • 11. Wash cells by 1 ml of FACS buffer and pellet cells at 300×g for 5 min. • 12. Remove supernatant, add 200 μl of FACS buffer, and run samples on the flow cytometry. (2) qRT-PCR • 1. For qRT-PCR analysis of mRNA gene expression, RNA should be harvested from at least 2×10^6 cells. • 2. Harvest cells, add 350 μl of buffer RLT+1% (vol/vol) s-mercaptoethanol to the well, transfer the lysate to a 1.5 ml tube, and put it immediately on ice. • 3. Perform RNA extraction using the Tiangen Kit (DP430), and follow the manufacturer's protocol ‘Purification of total RNA from animal and human cells’. • 4. When the RNA extraction was completed, determine the RNA concentration using a Nanodrop instrument. • 5. Perform the first-strand cDNA synthesis reaction with 1 μg of RNA using the HiScript TM II Q RT SuperMIX for qPCR(+gDNA wiper) Kit (Vazyme, #R223-01) for RT-qPCR. Follow the manufacturer's ‘First-Strand cDNA Synthesis’ protocol. This reaction would yield a 20 μl product. • 6. Dilute the 10 μl cDNA product in 80 μl of nuclease-free water. • 7. Pipette the diluted cDNA product (1 μl), Sybr green master mix (5 μl, Transgen, #AQ131) and 0.95 μM reverse/forward primer mix (4 μl) into a 384-well PCR plate in triplicate, either manually or using an automated pipetting robot. The complete primer panel included the target genes and the housekeeping gene (RPL13A). In the analysis, also included a sample of undifferentiated hPSCs to determine the gene expression levels relative to the expression in hPSCs. • 8. Analyze the samples by running a quantitative PCR on the LightCycler 480 instrument using a 40× cycle two-step protocol with a 60° C., 60 sec annealing/elongation step and a 95° C., 30 sec denaturation step. The average CT values from the three technical replicates were used for calculations of relative gene expression using the ΔΔCT method. For each gene, calculate the FC of the differentiated samples relative to the undifferentiated control sample using the housekeeping gene for normalization. Next, calculate the average of the FC values on the basis of the housekeeping gene. (3) Immunocytochemical Analysis • 1. Cell fixation: Remove the medium from the cells and wash with PBS. Add 4% (wt/vol) PFA (e.g., 200 μl to a well in a 48-well plate) and incubate at room temperature (RT) for 15 min. after incubation, wash the cells three times in PBS. • 2. Blocking: Remove PBS from the wells and add blocking solution to the cells, add enough volume to cover the cells. Leave the cells in blocking solution for 1 h at RT. • 3. Primary antibodies incubation: Remove the blocking solution from the cells and add the primary antibody solutions (˜100 μl/cm^2). […]

[3] = test system: imDAPs; experiment: imDAP maturation: cell morphology, adhesion and cell yield; conditions: Example 13; maturation media supplemented with 10 μM Y27632; day 7; FIG. 8A
Description: imDAPs were produced according to the method described in CN201910169525.0, and expanded as described in Example 10. […] MM-H used in Example 11 contained the following components: Neurobasal™ medium, 1% (v/v) Glutamax, 0.5 mM Db-cAMP sodium salt, 200 μM ascorbic acid, 20 ng/ml BDNF, 20 ng/ml GDNF, 1 ng/ml TGF-β3, 10 μM DAPT, HhPLT (0.5%, 1%, 2%). MM-B used in Example 11 contained the following components: Neurobasal, 1% (v/v) Glutamax, 0.5 mM Db-cAMP sodium salt, 200 μM ascorbic acid, 20 ng/ml BDNF, 20 ng/ml GDNF, 1 ng/ml TGF-β3, 10 μM DAPT, 2% (v/v) B27 (50×) (as control). The above HhPLT was produced from hPLT as follows. The hPLT was centrifuged at 3000 g for 30 min at 4° C. to obtain the supernatant, which was heated to 56° C. for 30 min. The suspension was finally cooled down to 4° C. at least 5 min, and spun at 3000 g for 30 min at 4° C. to obtain the HhPLT supernatant. Aliquots were prepared and stored at −80° C. until use. The above Medium was changed every 3rd day. On day 7, the imDAPs at early maturation stage were dissociated enzymatically with 1× TrypLE, centrifuged at 250 g for 5 minutes.
imDAPs were produced according to the method described in CN201910169525.0, and expanded as described in Example 10. […] Medium was changed every 3rd day. On day 7, the imDAPs at early maturation stage were dissociated enzymatically with 1× TrypLE, centrifuged at 250 g for 5 minutes. Cells were collected for RT-qPCR analysis of EN1, LMX1A, FOXA2, NURR1, SOX6 and TH gene expression. The maturation medium used in Example 12 contained the following components: Neurobasal™ medium, 1% (v/v) Glutamax, 1% (v/v) HhPLT, 0.5 mM Db-cAMP sodium salt, 200 μM ascorbic acid, 20 ng/mL BDNF, 20 ng/mL GDNF, 1 ng/mL TGF-β3, 10 μM DAPT.
imDAPs were produced according to the method described in CN201910169525.0, and expanded as described in Example 10. […] Cells were collected and counted by Vi-cell cytometer. The cells were analyzed by RT-qPCR for EN1, LMX1A, FOXA2, NURR1, SOX6 and TH gene expression. […]

SMILES | mDAP marker expression (EN1, LMX1A, FOXA2) [1] | percentage of Foxa2-expressing cells ([2]; 10 μM Y27632 vs 5 μM Blebbistatin, VTN-coated, Day 6, FIG. 2) | percentage of Foxa2-expressing cells during passages ([2]; medium with Y27632) | cell adhesion and growth [3]
Cc1cnc(-c2cnc(NCCNc3ccc(C#N)cn3)nc2-c2ccc(Cl)cc2Cl)[nH]1 [CHIR99021] | allowed better maintenance of mDAP marker expression | – | – | –
C[C@@H](N)[C@H]1CC[C@H](C(=O)Nc2ccncc2)CC1 [Y27632, (R)-(+)-trans-4-(1-aminoethyl)-N-(4-pyridyl) cyclohexanecarboxamide dihydrochloride] | – | capable of improving the percentage of Foxa2-expressing cells than Blebbistatin | still decreased during passages | could promote cell adhesion at a certain degree

Source: patent US12391919B2, “Culture medium, coating matrix and method for maturing midbrain dopaminergic progenitor cells” (NUWACELL BIOTECHNOLOGIES CO., LTD., priority 2022, dated 2025)
